From article PMC2233905 (The Journal of General Physiology, 2004)

Tests used:
breast cancer cells = conditions: ref Ouadid-Ahidouch et al., 2001; cited from earlier work
hEag1 channels = biological target: T1, hEag1 channels (Homo sapiens, UniProt O95259); experiment: hEag1 channels expressed in Xenopus oocytes; type: cell-based
T1 sequence (O95259 1-989): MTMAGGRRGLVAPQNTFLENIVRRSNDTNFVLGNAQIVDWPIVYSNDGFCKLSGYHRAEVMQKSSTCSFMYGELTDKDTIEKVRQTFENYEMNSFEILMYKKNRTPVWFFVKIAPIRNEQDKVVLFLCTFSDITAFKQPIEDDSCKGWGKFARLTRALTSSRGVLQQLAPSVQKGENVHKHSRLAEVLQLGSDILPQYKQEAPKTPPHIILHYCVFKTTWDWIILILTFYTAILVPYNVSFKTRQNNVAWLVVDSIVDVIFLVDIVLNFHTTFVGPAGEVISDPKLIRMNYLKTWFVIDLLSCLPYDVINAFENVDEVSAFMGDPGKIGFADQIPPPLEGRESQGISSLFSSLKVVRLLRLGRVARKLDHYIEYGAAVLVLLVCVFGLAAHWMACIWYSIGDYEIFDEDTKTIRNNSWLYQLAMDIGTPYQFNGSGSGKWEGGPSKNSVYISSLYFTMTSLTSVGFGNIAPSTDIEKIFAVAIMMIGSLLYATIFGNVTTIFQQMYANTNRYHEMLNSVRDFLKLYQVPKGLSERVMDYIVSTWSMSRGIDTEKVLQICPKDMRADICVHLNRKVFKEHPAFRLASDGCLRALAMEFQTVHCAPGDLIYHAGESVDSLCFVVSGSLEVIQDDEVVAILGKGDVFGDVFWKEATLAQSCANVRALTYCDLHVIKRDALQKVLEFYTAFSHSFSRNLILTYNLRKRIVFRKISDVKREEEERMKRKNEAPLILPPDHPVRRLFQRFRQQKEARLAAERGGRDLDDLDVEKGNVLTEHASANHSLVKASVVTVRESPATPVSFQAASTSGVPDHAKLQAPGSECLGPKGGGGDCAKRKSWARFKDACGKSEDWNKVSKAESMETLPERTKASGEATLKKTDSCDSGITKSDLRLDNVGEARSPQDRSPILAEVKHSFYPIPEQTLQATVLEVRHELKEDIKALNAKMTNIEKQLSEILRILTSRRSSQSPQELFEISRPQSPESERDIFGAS

Kv2.1 = biological target: T2, Kv2.1 (Homo sapiens, UniProt Q14721); experiment: Kv2.1 channels; type: cell-based; conditions: concentrations up to 10 μM, unpublished data
T2 sequence (Q14721 1-858): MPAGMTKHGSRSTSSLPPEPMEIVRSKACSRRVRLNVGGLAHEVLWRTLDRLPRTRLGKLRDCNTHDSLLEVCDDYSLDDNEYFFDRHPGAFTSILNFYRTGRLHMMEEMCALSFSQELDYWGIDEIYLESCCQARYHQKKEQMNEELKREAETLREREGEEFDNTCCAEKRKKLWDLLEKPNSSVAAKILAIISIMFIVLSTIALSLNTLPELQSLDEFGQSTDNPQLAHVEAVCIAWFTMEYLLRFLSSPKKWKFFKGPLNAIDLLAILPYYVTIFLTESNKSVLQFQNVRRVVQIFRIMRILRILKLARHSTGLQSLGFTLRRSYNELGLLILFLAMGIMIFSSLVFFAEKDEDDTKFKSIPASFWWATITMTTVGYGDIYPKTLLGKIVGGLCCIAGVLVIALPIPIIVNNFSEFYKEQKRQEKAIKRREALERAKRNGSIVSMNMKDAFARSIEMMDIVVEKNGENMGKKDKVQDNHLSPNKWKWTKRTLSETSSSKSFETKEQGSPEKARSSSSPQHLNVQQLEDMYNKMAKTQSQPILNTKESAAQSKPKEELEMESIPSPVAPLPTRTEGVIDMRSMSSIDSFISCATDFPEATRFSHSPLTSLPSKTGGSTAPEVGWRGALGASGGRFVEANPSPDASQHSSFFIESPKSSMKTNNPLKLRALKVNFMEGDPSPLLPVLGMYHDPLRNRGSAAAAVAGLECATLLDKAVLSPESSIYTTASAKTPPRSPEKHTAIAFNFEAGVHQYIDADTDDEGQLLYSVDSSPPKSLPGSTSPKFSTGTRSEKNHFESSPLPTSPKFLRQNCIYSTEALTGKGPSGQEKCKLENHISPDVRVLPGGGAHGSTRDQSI

hEag2 channels = biological target: T3, hEag2 channels (Homo sapiens, UniProt Q8NCM2); experiment: hEag2 channels expressed in Xenopus oocytes; type: cell-based
T3 sequence (Q8NCM2 1-988): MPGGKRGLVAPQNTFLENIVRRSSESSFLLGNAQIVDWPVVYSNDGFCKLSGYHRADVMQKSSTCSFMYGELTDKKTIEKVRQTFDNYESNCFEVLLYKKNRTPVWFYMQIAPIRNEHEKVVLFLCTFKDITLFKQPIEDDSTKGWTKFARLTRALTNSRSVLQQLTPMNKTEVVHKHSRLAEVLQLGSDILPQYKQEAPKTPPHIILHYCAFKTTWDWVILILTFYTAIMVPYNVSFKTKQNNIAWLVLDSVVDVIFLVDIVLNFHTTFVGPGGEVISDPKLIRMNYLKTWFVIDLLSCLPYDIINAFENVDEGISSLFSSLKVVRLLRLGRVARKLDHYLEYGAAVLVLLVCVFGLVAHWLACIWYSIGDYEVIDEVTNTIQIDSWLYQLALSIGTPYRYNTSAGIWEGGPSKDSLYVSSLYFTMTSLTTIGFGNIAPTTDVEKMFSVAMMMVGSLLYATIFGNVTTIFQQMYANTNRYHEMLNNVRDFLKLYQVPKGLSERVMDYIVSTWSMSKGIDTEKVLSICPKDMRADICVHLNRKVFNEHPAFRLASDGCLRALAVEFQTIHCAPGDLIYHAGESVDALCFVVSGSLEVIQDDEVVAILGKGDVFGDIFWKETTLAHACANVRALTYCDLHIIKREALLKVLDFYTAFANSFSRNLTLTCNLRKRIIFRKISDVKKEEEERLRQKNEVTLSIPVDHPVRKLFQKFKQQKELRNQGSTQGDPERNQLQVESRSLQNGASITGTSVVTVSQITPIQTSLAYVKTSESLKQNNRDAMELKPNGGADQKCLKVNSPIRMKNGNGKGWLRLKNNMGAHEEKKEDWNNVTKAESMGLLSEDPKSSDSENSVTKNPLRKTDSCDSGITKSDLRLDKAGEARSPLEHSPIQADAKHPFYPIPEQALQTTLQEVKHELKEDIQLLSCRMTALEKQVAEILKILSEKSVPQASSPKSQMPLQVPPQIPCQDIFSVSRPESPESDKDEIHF

- IC50 (hEag1 channels): ~1.5 µM
- effect on current (Kv2.1): no significant effects
- IC50 (hEag2 channels): ~1.5 µM
Compound: COc1ccc(CCN2CCC(Nc3nc4ccccc4n3Cc3ccc(F)cc3)CC2)cc1 [astemizole]
- effect on proliferation rate (breast cancer cells): significant reduction
